Inhibition and Activity data for 8 compounds are collected here from ChEMBL document CHEMBL1154434, “Novel keto-enamine Schiffs bases from 7-hydroxy-4-methyl-2-oxo-2H-benzo[h] chromene-8,10-dicarbaldehyde as potential antidyslipidemic and antioxidant agents” (2008).

Format in all cases: functional
Test [1] can be described thus: Antioxidant activity assessed as inhibition of microsomal lipid peroxidation at 100 ug/mL.
The nature of test [2]: Antioxidant activity assessed as inhibition of superoxide at 100 ug/mL.
Test [3] can be described thus: Antioxidant activity assessed as inhibition of hydroxyl radical at 100 ug/mL.
Test [4] relates to Rattus norvegicus. In words: Antidyslipidemic activity in WR-1339-induced hyperlipidemic Charles Foster rat assessed as reduction in plasma cholesterol level at 100 mg/kg, po after 18 hrs. Details: scale not given: the % may be the effect or the level left.
Test [5] concerns Rattus norvegicus. In words: Antidyslipidemic activity in WR-1339-induced hyperlipidemic Charles Foster rat assessed as reduction in plasma triglyceride level at 100 mg/kg, po after 18 hrs. More on the design: scale not given: the % may be the effect or the level left.
The test system of test [6] is Rattus norvegicus. In words: Antidyslipidemic activity in WR-1339-induced hyperlipidemic Charles Foster rat assessed as reduction in plasma phospholipid level at 100 mg/kg, po after 18 hrs. Details: scale not given: the % may be the effect or the level left.
Test [7] can be described thus: Antioxidant activity assessed as inhibition of superoxide at 20 ug/mL.

As usually defined, the inhibition is the drop in the measured response relative to a control, in per cent.

In the case of `CCCCCCCN/C=C1/C=C(C=O)c2c(ccc3c(C)cc(=O)oc23)C1=O`, the inhibition in test [1] was found to be 34%; in test [2], 45%; in test [3], 49%. Further, the Activity in the test on Rattus norvegicus [4] is recorded as 24%; in the test with Rattus norvegicus [5], 22%; in the test with Rattus norvegicus [6], 20%.

For the compound `CCCCN/C=C1/C=C(C=O)c2c(ccc3c(C)cc(=O)oc23)C1=O`, the inhibition in test [1] stood at 37%.

With `OC[C@@H](O)[C@@H](O)[C@H](O)[C@H](O)CO`, the inhibition stood at 45% in test [1] and 48% in test [3].

In the case of `Cc1c(C)c2c(c(C)c1O)CC[C@@](C)(CCC[C@H](C)CCC[C@H](C)CCCC(C)C)O2`, the results for the inhibition in test [1] and in test [3] were 45% and 48%, respectively.

With `Cc1ccc(C)c(OCCCC(C)(C)C(=O)O)c1` [GEMFIBROZIL], the Activity in the test on Rattus norvegicus [4] worked out at 33%; with Rattus norvegicus [5], 34%; in the test with Rattus norvegicus [6], 32%.

Turning to `Oc1ncnc2[nH]ncc12`, in test [7], the inhibition is 90%.

For `Cc1cc(=O)oc2c1ccc1c(O)c(C=O)cc(C=O)c12`, the inhibition in test [1] worked out at 27%; in test [2], 72%; in test [3], 52%. Besides, the Activity was 23% with Rattus norvegicus [4], 21% in the test on Rattus norvegicus [5] and 25% in the test on Rattus norvegicus [6].

`Cc1cc(=O)oc2c3c(ccc12)C(=O)/C(=C\NCCC1CNCCO1)C=C3C=O` (stereo not given): in test [1], the inhibition is 31%. Moreover, the Activity with Rattus norvegicus [4] is given as 20%; with Rattus norvegicus [5] it was 25%; with Rattus norvegicus [6], 21%.
